Data reported in US4000269A, “S-(α-substituted-arylmethylthio, -arylmethylsulfinyl, and -arylmethylsulfonyl)methyl phosphorus esters used as insecticides” (priority 1975, dated 1976).
Where two headings read alike, the source gives them in different places.

Assays:
[1] = system: Southern corn rootworm larvae (Diabrotica undecimpunctata); assay: Southern Corn Rootworm Control (treated soil, dust on talc); format: in vivo; settings: 144 h, potting soil, mortality after 6 days, read-out: Percent Control of Southern Corn Rootworm Larvae; for mortality at 1120.85 g/ha: 1 lbs./Acre; for mortality at 11208.5 g/ha: 10 lbs./Acre; for mortality at 56042.5 g/ha: 50 lbs./Acre
Description: (§1) Compounds are prepared as dusts on talc. The compounds are dissolved in acetone, and appropriate rates obtained by serial dilution. One and one-quarter milliliters of solution is pipetted onto a standard volume of dust in 1 -ounce jars, and the acetone allowed to evaporate. Twenty-five milliliters of moist soil and about 200 millet seeds are placed in the jar, capped and the contents thoroughly mixed. Ten second-instar larvae of the Southern corn rootworm (Diabrotica undecimpunctata ) are then placed in each jar. Mortality counts are made after 6 days and percent mortality determined.

[2] = Mammalian Toxicity Studies (LD50 for Rats); parameters: species or system male albino rats (Carworth Farms Nelson strain); settings: rat, in vivo; 14-day observation; corn oil
Description: (§2) Twenty male albino rats or mice of the Carworth Farms Nelson strain (CFI strain for mice)(or other suitable strain) weighing approximately 90 to 120 grams (18-20g. for mice) are selected. Basically, these animals are fasted 24 hours before dosing. Mice are not fasted.
(§3) For materials which are soluble or easily dispersed in an aqueous medium, a 20% solution or suspension is prepared in an aqueous solution of 0.2% agar and 0.1% "Tween" 80. The same series of dosages (grams or milliliters of material per kilogram of animal body weight) are used for all materials in this test. If no previous information is available on the compound or its analogs, a maximum dosage of 10 g/kg is selected to differ by a geometric factor of 2 from the preceding dose, i.e., 10, 5, 2.5, 1.25 g/kg. A sufficient number of dosages are given so as to bracket a 50% response. The animals are observed for several hours after dosing and daily over a 14-day observation period. At the end of this period the survivors are sacrificed, weighed and subjected to a gross autopsy. The results are tabulated and the LD50 is calculated by the method of moving averages using the tables constructed by Weil. [Weil, C. S., Biometrics, 8: (3), 249-263, 1952].
(§4) Samples received as liquids may be administered undiluted or as suspensions in aqueous Agar-Tween, depending on the viscosity of the material. If the material is believed to be relatively non-toxic, an initial maximum dosage of 10 ml/kg is selected and subsequent dosages are selected based upon the severity of gross signs of toxicity.
(§5) For organic phosphate anticholinesterase insecticides, the procedure is modified somewhat. The phosphates are readied for administration by preparing a solution or dispersion in corn oil (Mazola), the concentration of which is adjusted so that the total volume of the dose is 20 ml/kg ([…]) in every case. The initial solution is prepared by deciding upon the maximum dosage in mg/kg to be administered and preparing 50 ml. (10 in mouse test) of this solution of such a concentration that the desired dosage in mg/kg is delivered when 2 ml. (0.5 ml. in mouse test) of the solution is administered for 100 g (20 g in mouse) of rat body weight. Serial dilutions differing by a factor of two are then prepared for each lower dosage level.

Mites = assay: Cut-Stem Systemic Test (Mites); format: in vivo; settings: 100 ppm. emulsion, 3 days
Description: (§6) The compound to be tested is formulated as an emulsion containing 0.1 gram of test material, 0.2 gram of Alrodyne 315 emulsifier, 10 ml. of acetone and 90 ml. of water. This is diluted tenfold with water to give a 100 ppm. emulsion for the initial test. A sieva lima bean plant with only the primary leaves unfolded is cut off just above soil level and inserted into a 2-ounce bottle of 100 ppm. emulsion and held in place by a bit of cotton wrapped around the stem. The bottle is then placed in a ventilated box with the leaves extending outside the box, such that any possible fumes from the compound will be drawn out the end of the box rather than rising to affect the test leaves. After holding 3 days at 80° F. and 60% R.H., one leaf from each plant is placed on a moist filter paper in the bottom of a petri dish. Ten third-instar Southern armyworm larvae are then added to each dish and mortality counts made after holding another 3 days at 80° F. and 60% R.H.
The same procedure described above is employed in the mite systemic evaluation excepting that the sieva lima bean leaves are infested with mites, both adult and nymphs, while the leaves are in the ventilated box. After 3 days the leaves are removed and examined under a microscope to determine percent mortality. Data obtained are reported in the Table IV below where it can be seen that the compounds of the present invention are systemically effective insecticidal agents.

Southern armyworm larvae = assay: Cut-Stem Systemic Test (Southern Armyworm); format: in vivo; settings: Spodoptera eridania, 72 h, read-out: % Mortality, Southern Armyworms (Systemic Insecticidal Activity)
Description: as §6

[3] = system: False wireworm larvae (Eleodes suturalis); assay: False Wireworm Control (treated soil, dust on talc); format: in vivo; settings: 144 h, potting soil, mortality after 6 days, read-out: Percent Control of False Wireworms; for mortality at 1120.85 g/ha: 1 lbs./Acre; for mortality at 11208.5 g/ha: 10 lbs./Acre; for mortality at 56042.5 g/ha: 50 lbs./Acre
Description: as §1, with “three wheat” for “200 millet”, “capped,” for “capped”, “False wireworm” for “second-instar”, “(Eleodes suturalis ), 10 days old,” for “of the Southern corn rootworm (Diabrotica undecimpunctata )”

[4] = Mammalian Toxicity Studies (LD50 for Mice); parameters: species or system mice (Carworth Farms Nelson, CFI strain); settings: mouse, in vivo; 14-day observation; corn oil
Description: as §2, §3, §4, §5

Rats = system: Rats; parameters: unit not given here; settings: Value reported in the literature; 20160 min; cited from earlier work
[5] = cut-stem, 100 ppm. emulsion, larvae held 3 days

Structure (SMILES)	mortality at 1120.85 g/ha [1] [%]	mortality at 11208.5 g/ha [1] [%]	mortality at 56042.5 g/ha [1] [%]	LD50 at 336 h [2] [mg/kg]	% Mortality, Mites (Systemic Insecticidal Activity) (Mites) [%]	mortality at 100 µg/mL (Southern armyworm larvae; [5]) [%]	mortality at 1120.85 g/ha [3] [%]	mortality at 11208.5 g/ha [3] [%]	mortality at 56042.5 g/ha [3] [%]	LD50 at 336 h [4] [mg/kg]	mortality at 100 µg/mL (Southern armyworm larvae) [%]	LD50 Rats (Rats)
COP(=S)(OC)SCSC(C)(C)c1ccc(Br)cc1 [Example 13, S-(p-Bromo-α,α-dimethylbenzylthio)methyl O,O-Dimethyl Phosphordithioate]	90	100	100	280	100	100						
CCOP(=S)(OCC)SCSC(C)(C)c1ccccc1 [Example 2, S-(α,α-Dimethylbenzylthio)methyl O,O-Diethyl Phosphorodithioate]	90	100	100	18	80		0	100	100	71	100	
CCOP(=S)(OCC)SC[S+]([O-])C(C)(C)c1ccccc1 (stereo not drawn) [Example 27, S-(α,α-Dimethylbenzylsulfinyl)methyl O,O-Diethyl Phosphorodithioate]	0	100	100				0	100	100	88		
CCCSP(=O)(OCC)SCSC(C)(C)c1ccccc1 (stereo not drawn) [Example 12, S-(α,α-Dimethylbenzylthio)methyl O-Ethyl S-Propyl Phosphorodithioate]	0	100	100	34	90	0						
CCOP(=S)(OCC)SCSCC [reference compound]				1 to 5						5.6		
COP(=S)(OC)SCSC(C)(C)c1cccc(Cl)c1Cl [Example 23, S-(2,3-Dichloro-α,α-dimethylbenzylthio)methyl O,O-Dimethyl Phosphorodithioate]	60	90	100	> 500								
CCOP(=S)(OCC)SCSC(C)(C)c1ccc(Cl)cc1 [Example 6, S-(p-Chloro-α,α-Dimethylbenzylthio)methyl O,O-Diethyl Phosphorodithioate]	0	90	100	79								
CCOP(=S)(OCC)SCSCc1ccccc1 [reference compound]										67		25
COP(=S)(OC)SCSC(C)(C)c1ccc(Cl)c(Cl)c1 [Example 11, S-(3,4-Dichloro-α,α-dimethylbenzylthio)methyl O,O-Dimethyl Phosphorodithioate]	100	100	100	> 200	30	90						
COP(=S)(OC)SCSC(C)(C)c1cc(Cl)ccc1Cl [Example 25, S-(2,5-Dichloro-α,α-dimethylbenzylthio)methyl O,O-Dimethyl Phosphorodithioate]	0	100	100	800								
COP(=S)(OC)SCSC(C)(C)c1ccccc1 [Example 5, S-(α,α-Dimethylbenzylthio)methyl O,O-Dimethyl Phosphorodithioate]	100	100	100	28			100	100	100	117		
CCOP(=S)(OCC)SCSC(C)c1ccccc1 (stereo not drawn) [Example 15, S-(α-Methylbenzylthio)methyl O,O-Diethyl Phosphorodithioate]	80	100	100				0	100	100	67		
COP(=S)(OC)SCSC(C)(C)c1ccc(Cl)cc1 [Example 7, S-(p-Chloro-α,α-dimethylbenzylthio)methyl O,O-Dimethyl Phosphorodithioate]	100	100	100	230	100	100						
COP(=O)(SC)SCSC(C)(C)c1ccc(Cl)cc1 (stereo not drawn) [Example 16, S-(p-Chloro-α,α-dimethylbenzylthio)methyl O-Methyl S-Methyl Phosphorodithioate]	0	100	100		30	0						
CC(C)OP(=S)(OC(C)C)SCSC(C)(C)c1ccccc1 [Example 20, S-(α,α-Dimethylbenzylthio)methyl O,O-diisopropylPhosphorodithioate]		0	100					0	100			
CCOP(=S)(OCC)SCSC(C)(C)c1ccc(Cl)c(Cl)c1 [Example 8, S-(3,4-Dichloro-α,α-dimethylbenzylthio)methyl O,O-Diethyl Phophorodithioate]				100	100	100						
